The results in this text go back to PMC11775380, “Discovery of Novel Nav1.7-Selective Inhibitors with the 1H-Indole-3-Propionamide Scaffold for Effective Pain Relief” (Research, 2025).

As usually defined, the IC50 is the concentration that inhibits the measured activity by half.

For data set [1], the system named is CFA inflammatory pain model of mice. The experiment in a line: CFA-induced inflammatory (chronic) pain model. The conditions noted are these: for Paw withdrawal threshold (PWT) at 1.5 h: 1.5 h post drug, 24 h after CFA. Format: in vivo, ICR mice. The protocol:
The chronic pain model of mice was often used to simulate persistent pain in humans. In this model, chronic persistent pain was induced by injecting complete Freund’s adjuvant (CFA) into the right hind foot of mice. […] The chronic analgesic potential of WN2-R was evaluated using both i.g. and i.m. methods (n = 4). When administered by i.g., the PWTs of the WN2-R group and the PF-05089771 group reached their peak at 1.5 and 1 h after administration, respectively, and subsequently declined to the same level as the saline group at 2.5 h (Fig. 6D). […] When administered i.m., both the WN2-R and PF-05089771 groups reached peak PWTs at 1.5 h, and declined to the saline group level at 3 h (Fig. 6K). […] The mechanical allodynia of ICR mice (2 male and 2 female) was assessed prior to model construction using von Frey fibers according to the up–down method. Mice with paw withdraw thresholds (PWTs) remarkably deviating from the mean value were excluded from further experiments. Subsequently, 15 μl of CFA was unilaterally injected into the intraplantar surface of the right hind paw of each mice. After 24 h, the PWTs of the mice were assessed. During the i.g. administration of drugs or saline, PWTs were measured 0, 0.5, 1, 1.5, 2, and 2.5 h post drugs/saline administration. Similarly, during i.m. administration, PWTs were measured at 0, 0.5, 1, 1.5, 2, 2.5, and 3 h post drugs/saline administration.

The target in a further data set is T1, human Nav1.7 (hNav1.7) (Homo sapiens, UniProt Q15858).
T1 construct: expressed in transfected cells; host or cells: HEK293T
T1 sequence (Q15858 whole entry): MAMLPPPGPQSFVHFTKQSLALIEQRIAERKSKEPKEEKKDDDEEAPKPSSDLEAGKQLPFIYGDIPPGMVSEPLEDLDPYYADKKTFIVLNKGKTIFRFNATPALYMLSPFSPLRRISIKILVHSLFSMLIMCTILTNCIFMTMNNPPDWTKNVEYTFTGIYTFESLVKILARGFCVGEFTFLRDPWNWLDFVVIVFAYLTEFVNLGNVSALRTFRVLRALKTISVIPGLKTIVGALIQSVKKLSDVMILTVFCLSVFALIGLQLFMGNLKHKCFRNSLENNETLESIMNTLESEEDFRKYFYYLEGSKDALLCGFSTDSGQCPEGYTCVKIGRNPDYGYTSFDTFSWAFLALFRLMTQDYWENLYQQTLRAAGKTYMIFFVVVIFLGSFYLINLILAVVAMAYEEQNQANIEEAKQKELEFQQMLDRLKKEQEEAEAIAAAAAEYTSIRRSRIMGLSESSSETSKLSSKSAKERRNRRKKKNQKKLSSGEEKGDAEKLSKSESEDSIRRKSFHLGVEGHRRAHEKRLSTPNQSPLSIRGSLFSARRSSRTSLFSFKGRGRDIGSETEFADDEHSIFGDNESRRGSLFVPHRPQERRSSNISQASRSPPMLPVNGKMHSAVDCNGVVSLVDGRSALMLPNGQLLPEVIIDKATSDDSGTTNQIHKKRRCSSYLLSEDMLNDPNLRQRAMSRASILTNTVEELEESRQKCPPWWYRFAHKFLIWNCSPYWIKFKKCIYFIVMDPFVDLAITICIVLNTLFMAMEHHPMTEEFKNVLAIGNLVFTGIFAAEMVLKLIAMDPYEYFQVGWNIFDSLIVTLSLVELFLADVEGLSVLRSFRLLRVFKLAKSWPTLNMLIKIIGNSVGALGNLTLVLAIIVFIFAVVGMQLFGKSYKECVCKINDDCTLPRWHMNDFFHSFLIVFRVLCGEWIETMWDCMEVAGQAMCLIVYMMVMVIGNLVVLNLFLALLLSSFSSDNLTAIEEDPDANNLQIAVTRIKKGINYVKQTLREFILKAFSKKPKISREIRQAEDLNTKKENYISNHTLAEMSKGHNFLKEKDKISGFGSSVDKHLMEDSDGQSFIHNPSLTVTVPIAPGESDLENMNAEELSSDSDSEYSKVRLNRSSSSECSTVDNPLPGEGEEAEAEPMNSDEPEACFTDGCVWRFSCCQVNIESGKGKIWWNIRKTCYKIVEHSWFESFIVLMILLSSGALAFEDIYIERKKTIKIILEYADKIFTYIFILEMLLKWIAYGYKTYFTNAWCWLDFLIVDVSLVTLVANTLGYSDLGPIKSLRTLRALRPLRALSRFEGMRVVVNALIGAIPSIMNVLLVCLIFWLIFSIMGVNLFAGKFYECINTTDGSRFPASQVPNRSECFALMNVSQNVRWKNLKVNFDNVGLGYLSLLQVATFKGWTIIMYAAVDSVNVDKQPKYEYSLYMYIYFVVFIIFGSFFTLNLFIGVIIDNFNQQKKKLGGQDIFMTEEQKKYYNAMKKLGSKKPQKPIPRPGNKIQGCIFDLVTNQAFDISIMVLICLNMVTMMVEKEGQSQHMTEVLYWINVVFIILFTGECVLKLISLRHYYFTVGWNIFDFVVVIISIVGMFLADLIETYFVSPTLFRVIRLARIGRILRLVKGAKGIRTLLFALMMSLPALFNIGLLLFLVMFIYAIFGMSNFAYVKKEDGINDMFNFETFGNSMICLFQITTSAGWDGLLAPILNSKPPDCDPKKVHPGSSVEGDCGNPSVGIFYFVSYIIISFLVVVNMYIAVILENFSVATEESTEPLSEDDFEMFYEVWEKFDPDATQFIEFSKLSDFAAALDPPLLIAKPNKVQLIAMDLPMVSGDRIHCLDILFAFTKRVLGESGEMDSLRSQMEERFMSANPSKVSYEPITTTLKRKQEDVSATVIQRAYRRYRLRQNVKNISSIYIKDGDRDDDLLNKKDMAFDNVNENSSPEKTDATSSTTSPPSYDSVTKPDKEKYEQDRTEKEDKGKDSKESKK
T1 sequence (Q07699 19-218 partner): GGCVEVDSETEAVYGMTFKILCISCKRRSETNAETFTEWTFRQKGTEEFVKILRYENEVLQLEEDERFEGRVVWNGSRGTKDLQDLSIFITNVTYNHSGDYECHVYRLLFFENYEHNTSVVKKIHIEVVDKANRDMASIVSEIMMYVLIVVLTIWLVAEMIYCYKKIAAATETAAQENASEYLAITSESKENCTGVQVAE
T1 sequence (O60939 30-215 partner): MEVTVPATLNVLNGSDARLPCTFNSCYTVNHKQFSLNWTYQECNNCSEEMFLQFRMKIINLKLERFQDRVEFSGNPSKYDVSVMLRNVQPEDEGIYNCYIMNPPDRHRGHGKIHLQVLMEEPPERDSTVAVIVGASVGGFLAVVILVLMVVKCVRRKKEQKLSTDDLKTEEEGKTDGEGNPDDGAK
Kind of data set: Whole-cell patch-clamp inhibition of Nav1.7 currents in transfected HEK293T cells. Format: cell-based. As for the experimental part:
Human embryonic kidney (HEK) 293T (ATCC CRL-3216) and ND7/23 cells (National Collection of Authenticated Cell Cultures SCSP-5026) were cultured under standard conditions (5% CO2, 37 °C) in Dulbecco’s modified Eagle’s medium (DMEM) containing 10% fetal bovine serum and 1% penicillin-streptomycin solution(all from Gibco, Thermo Fisher Scientific, Waltham, MA, USA). When the cells reached 70% to 90% confluence, human Nav1.2 (hNav1.2), human Nav1.3 (hNav1.3), human Nav1.4 (hNav1.4), human Nav1.5 (hNav1.5), and mouse Nav1.6 (mNav1.6) channel plasmids were cotransfected with enhanced green fluorescent protein (eGFP) into HEK293T cells. Additionally, plasmids expressing β1 and β2 subunits tagged with eGFP were cotransfected with the human Nav1.7 (hNav1.7) channel into HEK293T cells. Human Nav1.8 (hNav1.8) was transiently transfected into ND7/23 cells, along with eGFP, using Lipofectamine 2000 (Invitrogen), adhering strictly to the manufacturer’s protocol. For manual patch-clamp experiments, the cells were plated onto glass coverslips and used within 20 to 48 h of transfection.
Whole-cell patch-clamp recordings were conducted at 25 ± 2 °C, utilizing an EPC 10USB patch-clamp amplifier (HEKA Elektronik, Lambrecht, Germany). Pipettes, with access resistance between 2.0 and 3.0 MΩ, were pulled from borosilicate glass capillary tubes using a 2-step vertical microelectrode puller (PC-10, Narishige Group, Tokyo, Japan). Voltage-clamp recordings were obtained with PatchMaster software v2 × 73 (HEKA Elektronik) 5 min after establishing whole-cell configuration, sampled at 20 kHz, and filtered at 5 kHz. To minimize voltage errors, 80% series resistance compensation was applied. Pipettes were filled with 140 mM CsF, 10 mM NaCl, 1 mM EGTA, and 10 mM HEPES (pH=7.4, adjusted with CsOH). The external solution contained 140 mM NaCl, 2 mM CaCl2, 1 mM MgCl2, 5 mM KCl, 10 mM HEPES, and 10 mM glucose (pH=7.4, adjusted with NaOH). IC50 values were determined in HEK293T or ND7/23 cell lines by voltage clamping at −80 mV, followed by stepping to the V1/2 of inactivation for 8 s to facilitate compound binding.

The subject of a further data set is mice. The conditions noted are these: mouse, in vivo. As for the experimental part:
VGSC inhibitors required credible subtype selectivity to void side effects caused by binding to nontarget subtypes. At a concentration of 1 μM, the inhibitory rates of WN2-R on hNav1.2, hNav1.3, hNav1.4, hNav1.5, mNav1.6, and hNav1.8 were determined (n = 3 to 6, Fig. 7A). […] To further evaluate the drug safety profile, high-dose acute toxicity experiments were conducted. Mice were administered a high dose of 30 mg/kg WN2-R through i.p. administration. The rotarod test, forced-swim test, and open field test were used to explore the effect of high-dose WN2-R on the motor ability of mice (n = 4). The rotarod test evaluated the drug's effect on motor coordination, the forced-swim test examined its impact on the overall motor system, and the open field test assessed the drug's influence on the motor and nervous systems.

As to `Cc1ccc(Cn2cc([C@H](CC(=O)NCCN(C)C)c3ccc(F)cc3)c3ccccc32)cc1` [WN2-R], in data set [1] (i.g.), the “Time at which PWT declined to the saline group level” value was found to be 2.5 h, the “Time of peak PWT after administration” value turned out to be 1.5 h and the “Paw withdrawal threshold (PWT) at 1.5 h” value was 1.25 g. In addition, in data set [1] (i.m.), the “Time at which PWT declined to the saline group level” value is 3 h, the “Time of peak PWT after administration” value is listed as 1.5 h and the “Paw withdrawal threshold (PWT) at 1.5 h” value is 1.17 g. Further, on human Nav1.7 (hNav1.7) (ratio of Nav1.7 IC50 values of the enantiomers), the “Activity of P1 relative to P2” value is reported as 4.57 times. This molecule also displayed an IC50 against human Nav1.7 (hNav1.7) (−80 mV holding, step to V1/2 of inactivation for 8 s, HEK293T) of 24.7 ± 9.4 nM. Besides, the “Survival after high dose” value in the data set on mice is given as “survived normally”.
